Data reported in PMC2566858 (Nucleic Acids Research, 2008).

Legend:
rGyr_hel [1] = biological target: T1, rGyr_hel (Thermotoga maritima, UniProt O51934); test: fluorescence equilibrium titration; format: binding
T1 sequence (O51934 59-541): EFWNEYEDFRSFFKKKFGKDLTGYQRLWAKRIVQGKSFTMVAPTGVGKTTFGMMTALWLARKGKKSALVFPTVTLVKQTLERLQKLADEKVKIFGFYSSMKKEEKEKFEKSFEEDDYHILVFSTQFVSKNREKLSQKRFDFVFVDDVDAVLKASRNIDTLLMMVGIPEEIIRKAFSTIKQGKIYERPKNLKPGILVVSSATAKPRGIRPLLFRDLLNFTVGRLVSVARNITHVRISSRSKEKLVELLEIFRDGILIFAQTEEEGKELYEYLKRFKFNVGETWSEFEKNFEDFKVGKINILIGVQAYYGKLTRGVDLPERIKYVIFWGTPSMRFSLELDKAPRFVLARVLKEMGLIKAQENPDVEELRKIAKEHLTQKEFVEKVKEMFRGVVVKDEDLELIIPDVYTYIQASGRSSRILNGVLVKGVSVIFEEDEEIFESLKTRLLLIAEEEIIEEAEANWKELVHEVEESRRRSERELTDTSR

rGyr_fl = rGyr_fl (Thermotoga maritima, UniProt O51934, K106Q/Y851F); test: biochemical
rGyr_fl, sequence (O51934 whole entry K106Q/Y851F): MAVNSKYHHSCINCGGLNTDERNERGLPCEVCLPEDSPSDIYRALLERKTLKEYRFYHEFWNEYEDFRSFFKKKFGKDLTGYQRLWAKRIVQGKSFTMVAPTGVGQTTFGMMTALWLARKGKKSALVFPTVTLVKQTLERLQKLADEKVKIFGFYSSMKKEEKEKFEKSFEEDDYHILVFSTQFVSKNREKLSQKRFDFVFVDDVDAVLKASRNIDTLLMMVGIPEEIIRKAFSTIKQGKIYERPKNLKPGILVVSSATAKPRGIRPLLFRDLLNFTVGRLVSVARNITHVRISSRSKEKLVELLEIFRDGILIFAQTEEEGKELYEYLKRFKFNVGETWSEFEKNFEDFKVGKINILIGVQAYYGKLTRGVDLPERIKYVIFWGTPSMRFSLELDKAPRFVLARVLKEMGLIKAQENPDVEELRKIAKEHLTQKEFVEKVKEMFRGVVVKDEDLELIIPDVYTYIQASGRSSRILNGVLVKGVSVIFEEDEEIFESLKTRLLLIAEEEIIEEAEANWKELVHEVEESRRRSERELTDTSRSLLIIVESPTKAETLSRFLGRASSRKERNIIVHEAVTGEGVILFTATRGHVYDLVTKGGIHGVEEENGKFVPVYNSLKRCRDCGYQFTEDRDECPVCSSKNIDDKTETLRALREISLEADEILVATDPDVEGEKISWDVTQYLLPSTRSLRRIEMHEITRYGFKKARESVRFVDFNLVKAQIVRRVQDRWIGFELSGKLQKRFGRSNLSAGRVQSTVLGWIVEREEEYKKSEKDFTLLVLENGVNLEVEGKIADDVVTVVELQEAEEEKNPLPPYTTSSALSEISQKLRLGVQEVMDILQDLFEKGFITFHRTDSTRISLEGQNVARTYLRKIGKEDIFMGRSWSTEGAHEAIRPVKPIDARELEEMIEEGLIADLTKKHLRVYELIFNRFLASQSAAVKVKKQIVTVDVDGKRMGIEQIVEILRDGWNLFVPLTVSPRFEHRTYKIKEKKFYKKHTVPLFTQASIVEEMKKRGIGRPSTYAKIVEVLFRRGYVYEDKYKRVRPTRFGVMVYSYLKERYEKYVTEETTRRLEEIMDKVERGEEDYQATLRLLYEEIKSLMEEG

rGyr_hel [2] = biological target: rGyr_hel (Thermotoga maritima, UniProt O51934, K106Q); test: biochemical
rGyr_hel (Thermotoga maritima, UniProt O51934, K106Q), sequence (O51934 59-541 K106Q): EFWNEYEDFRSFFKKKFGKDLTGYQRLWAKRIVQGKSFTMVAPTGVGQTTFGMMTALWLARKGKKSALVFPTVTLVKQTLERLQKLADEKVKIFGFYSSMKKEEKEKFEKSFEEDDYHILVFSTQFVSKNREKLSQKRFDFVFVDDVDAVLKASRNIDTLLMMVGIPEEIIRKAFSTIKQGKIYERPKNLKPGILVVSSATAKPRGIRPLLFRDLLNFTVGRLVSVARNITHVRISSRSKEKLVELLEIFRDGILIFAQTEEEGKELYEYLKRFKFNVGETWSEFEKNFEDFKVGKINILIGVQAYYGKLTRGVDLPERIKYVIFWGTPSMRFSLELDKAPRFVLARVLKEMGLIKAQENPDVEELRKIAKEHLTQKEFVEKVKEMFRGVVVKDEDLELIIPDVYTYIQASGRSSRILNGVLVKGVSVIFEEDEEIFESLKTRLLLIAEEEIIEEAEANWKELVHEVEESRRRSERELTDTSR

SMILES	Kd (rGyr_hel [1]) [µM]	Kd (rGyr_fl) [µM]	Kd (rGyr_hel [2]) [µM]
Nc1ncnc2c1ncn2[C@@H]1O[C@H](COP(=O)(O)O)[C@@H](O)[C@H]1O [AMP]	1600 ± 231		
Nc1ncnc2c1ncn2[C@@H]1O[C@H](COP(=O)(O)OP(=O)(O)OP(=O)(O)O)[C@@H](O)[C@H]1O [ATP]		98 ± 12	570 ± 300
Nc1ncnc2c1ncn2[C@@H]1O[C@H](COP(=O)(O)OP(=O)(O)O)[C@@H](O)[C@H]1O [ADP]		36 ± 5	150 ± 85
